Laboratory results from patent publication US20260200984A1, “PEPTIDE FOR CARTILAGE REGENERATION, AND USES THEREOF” (CAREGEN CO., LTD., priority 2022, published 2026).
Like-named read-outs stand apart in the source and are kept apart here. Where no end group is shown, it is not given here.

How the values were obtained:
[1] = tested on: human adipose-derived mesenchymal stem cells (AD-MSC)
Method: (§1) The aim was to analyze the cytotoxicity caused by the addition of Peptide-1 or Peptide-2 to human adipose-derived mesenchymal stem cells (AD-MSC) using the CCK-8 assay.
(§2) Specifically, AD-MSC cells were seeded in 96-well plates at a density of 1.5×10^3 cells/well and cultured in Dulbecco's Modified Eagle's Medium (DMEM) supplemented with 10% FBS for 24 hours. Then, the medium was replaced with DMEM medium supplemented with 5% FBS, and Peptide-1 or Peptide-2 was treated at different concentrations, respectively. Subsequently, the medium was replaced every 3 days and Peptide-1 or Peptide-2 was treated at different concentrations, respectively. To confirm CCK-8 activity, after 7 days, CCK-8 (Dojindo, CCK-8 kit) solution was added at 1/10 volume of the culture medium, and incubated for 2 hours. The culture medium was sampled and CCK-8 activity was confirmed at a wavelength of 450 nm using a microplate reader.

[2] = tested on: human adipose-derived mesenchymal stem cells (AD-MSC); test: CCK-8 cytotoxicity assay in AD-MSC cells; conditions: different concentrations, 7 days, absorbance 450 nm, FIG. 1, FIG. 2
Method: as §1, §2

| Sequence | toxicity toward adipose-derived mesenchymal stem cells (CCK-8 activity) [1] | toxicity toward adipose-derived mesenchymal stem cells (CCK-8 activity) [2] |
| --- | --- | --- |
| QSSLRALR [Peptide-2, QSSLRALR] | did not exhibit toxicity | – |
| SHIAGGLSFHSTV [Peptide-1, SHIAGGLSFHSTV] | – | did not exhibit toxicity |
